According to patent US20060194819A1, “Activation specific inhibitors of nf-kb and method of treating inflammatory processes in cardio-vascular diseases” (PROCORDE GMBH, priority 2003, published 2006):
Like-named read-outs stand apart in the source and are kept apart here.

Key:
[1] = Isomerization in solution observed by NMR; format: physicochemical
From the text: These signals were tentatively attributed to a cis/trans isomer of compound 4. The signal intensities of this isomer accounted for approximately 10% of the signals due to the major product. In acetone-db, this isomerization was slower and occurred within days.

HeLa cells = assay: Cell viability, WST-1 assay; format: cell-based
Procedure: […] The medium was changed and 10 μL of the WST-1 reagent was added to each well. After 2 h the absorption of 450 nm was measured in an Elisa-reader.

[2] = test system: ICAM expression in HUVEC cells; assay: ICAM expression in HUVEC cells by FACS analysis; format: cell-based; settings: Homo sapiens, read-out: IC50 for inhibition of ICAM expression
Procedure: HUVEC cells were seeded in 6-well plates 1×10^6 cells/well. After 24 h the cells were treated with different concentration of compound 68. After 1 h the medium was removed and the cells incubated with either IL-1 (100 pg/ml) or TNF alpha (1 ng/ml) for a total of 4 h. Thereafter the cells were harvested with trypsin, washed with PBS and centrifuged with 1000 rpm for 5 min. The pellet was resuspended in 50 μl PBS and 5 μl CD54-PE antibody (anti-ICAM antibody from Beckman/Coulter/Immunotech). After washing twice in PBS, the ICAM cell surface expression was analysed by a FACScan (Becton Dickinson).

[3] = test system: I KappaB alpha phosphorylation; assay: P-IkBalpha detection in Western blot of HeLa cell lysates after TNF alpha stimulation; format: cell-based; settings: HeLa cells, 10 and 100 μM
Procedure: P-IkBα Detektion in Western-Blot Protocol: HeLa cells were maintained in Dulbecco's modified Eagle's medium (Invitrogen) supplemented with 10% fetal bovine serum, 2 mM L-glutamine, penicillin (50 units/ml) and streptomycin (50 μg/ml). 24 h before treatment with different compounds HeLa cells were plated at a density of 5×10^6 per well in 100-mm cell culture dishes to 90% confluences.
The cells were incubated with different drugs at the concentration indicated for 1 h, washed twice with PBS and stimulated with 20 ng/ml TNF alpha (Roche). After 7 min the cells were washed twice with ice cold PBS followed by scraping and transferring into a 1.5 ml micro centrifuge tube. After centrifugation by 2000 rpm for 2 min by 4° C. the PBS supernatant was removed and 200 μl lysis-buffer (10 mM Hepes, pH 7.9, 0.1% NP40, 10 mM, 300 mM Sucrose, 10 mM KCl, 15 mM MgCl2, 1 mM DTT, 0.5 mM PMSF and antipain, aprotinin, leupeptin each 0.75 μg/ml (Sigma) was added to the pellet. The resuspended pellet was incubated on ice for 5 min and centrifuged at 13000 g for 30 s. 30 μl of the supernatant, cytosolic extract, was diluted with Laemmli-buffer (2% SDS, 2% 2-Mercaptoethanol, 0.01% Bromophenol blue, 8% Glycerine), heated by 60° C. for 10 min and loaded to a 4-20% polyacrylamid gels (BioRad). After electrophoresis the proteins were transferred to a nitrocellulose membrane using the wet blotting technique. First the membrane was blocked with Roti-Block (Roth) and afterwards incubated with monoclonal antibodies against P-IkBalpha (Santa Cruz Biotechnology, used at 1:200 dilution). This incubation was followed by the appropriate horseradish peroxidase-conjugated secondary antibody (Dianova) at 1:10000 dilution. Antibody binding was visualized on x-ray film using the Western blot Chemiluminescent Reagent Detection Kit (Santa Cruz).

[4] = Solubility tests, 1.2 mg in 500 μl of each solvent; format: physicochemical
Procedure: Solubility tests were performed with aliquots of compound 4 (1.2 mg) and 500 μl of each solvent.

NF-kappaB = assay: Electrophoretic mobility shift assay (EMSA) for NF-kappaB in LPS stimulated THP-1 monocytic cells; format: cell-based; settings: THP-1 cells; for NF-kappaB activation: LPS
Procedure: Electrophoretic Mobility Shift Assay (EMSA): THP-1 monocytic cells (DSM, Braunschweig, Germany) were maintained in suspension in RPMI 1640 (Glutamax-1, low endotoxin) containing 7% fetal calf serum (FCS) (Myoclone super plus, low endotoxin), 100 units/ml penicillin, and […] streptomycin (Life Technologies, Inc., Eggenstein, Germany). For the experiments, the cells were plated at a density of 3×10^6 per well in 6-well culture dishes. Nuclear extracts were prepared by harvesting cells by centrifugation at 1200 rpm for 7 min at 4° C. The cells were resuspended by adding 1 ml ice cold PBS and transferred into a microcentrifuge tube. After centrifugation at 2000 g for 2 min by 4° C. the pellet was lysed in 50 μl buffer A (10 mM Hepes, pH 7.9, 0.1% NP40, 10 mM, 300 mM Sucrose, 10 mM KCl, 15 mM MgCl2, 1 mM DTT, 0.5 mM PMSF and antipain, aprotinin, leupeptin each 0.75 μg/ml (Sigma)). After 5 min incubation on ice and centrifugation at 16000 g for 5 sec the pellet was washed with 100 μl buffer A. The nuclear pellet was resuspended with 100 μl buffer B (20 mM Hepes, pH 7.9, 100 mM KCl, 100 mM NaCl, 1 mM DTT, 20% Glycerol, 0.5 mM PMSF and antipain, aprotinin, leupeptin each 0.75 μg/ml (Sigma)) and sonicated for 10 sec. The probe was pulse centrifuged at 16000 g for 5 sec. The nuclear extract was aliquoted and snap-freeze in liquid N2. Nuclear extracts ([…] of protein) were incubated with radiolabeled DNA probes (10 ng; 10^5 cpm) for 30 min at room temperature in […] of binding buffer (20 mM HEPES, pH 7.9, 50 mM KCl, 1 mM dithiothreitol, 0.5 mM EDTA, 10% glycerol, 1 mg/ml bovine serum albumin, 0.2% Nonidet P-40, 50 ng of poly(dI-dC)/ml). […] The binding of Sp-1 and AP-1 was also analysed by EMSA using specific consensus oligonucleotides (Promega, Heidelberg, Germany) that were labeled with [γ-^32P]ATP (>5,000 Ci/mmol, NEN Life Science Products) and T4 polynucleotide kinase (Boehringer Mannheim). Gels were dried and analysed by autoradiography. […]

| Structure (SMILES) | signal intensities of the isomer relative to the major product ([1]; DMSO-d6, rt) | time to appearance of second set of NMR signals (cis/trans isomer) ([1]; DMSO-d6, rt) | time of isomerization ([1]; acetone-d6) | cell viability (WST staining) (HeLa cells; HeLa cells, 33 and 100 μmol/L, one day) | IC50 ([2]; after IL-1 stimulation (100 pg/ml)) [µM] | IC50 ([2]; after TNF alpha stimulation (1 ng/ml)) [µM] | effect on IkappaB phosphorylation (Western blot), comparison of COM 73 and COM 54 family [3] | Solubility ([4]; Acetone) | Solubility ([4]; DMSO) | Solubility ([4]; H2O) | Solubility ([4]; MeCN) | Solubility ([4]; MeOH) | NF-kappaB activation (NF-kappaB; 12.5 μM and 25 μM) | NF-kappaB activation (NF-kappaB; 50 μM and 100 μM) | reduced NF-kappaB-release (NF-kappaB; 100 μM, 1 h, LPS 1 μg/ml) [%] | decrease in metabolic activity compared with untreated control (WST-1) (HeLa cells; HeLa cells, 30 μM, 3 h) | influence on cell viability (WST staining) (HeLa cells; HeLa cells, 0.3 to 100 μmol/L, one day) | toxicity for HeLa cells (WST-1) (HeLa cells; concentrations and conditions of the described assays) |
| --- | --- | --- | --- | --- | --- | --- | --- | --- | --- | --- | --- | --- | --- | --- | --- | --- | --- | --- |
| O=C(NN=Cc1ccccc1O)c1ccc([N+](=O)[O-])o1 [COM 68, 5-Nitro-furan-2-carboxylic acid (2-hydroxy-benzylidene)-hydrazide] | approximately 10% | within minutes | within days | decreased cell viability | 7.8 | 4.5 | no effect | ++++ (++++: 100% dissolved) | ++++ (++++: 100% dissolved) | − (−: 0% dissolved) | +++ (+++: 80% dissolved) | + (+: 20% dissolved) | – | – | – | – | – | – |
| O=C(N/N=C/c1ccc(/C=N/NC(=O)c2ccc([N+](=O)[O-])o2)cc1)c1ccc([N+](=O)[O-])o1 [Compound 54] | – | – | – | – | – | – | no effect | – | – | – | – | – | significantly affected | nearly completely abolished | 95 | no significant decrease | no negative influence | not found to be toxic |
